# Assay results reported in the supplement of paper PMC10307832.
# Assays:
# Assay in all cases: relative viability (nuclei count vs DMSO), 5 days (fraction); higher = more cells survive
# AZD6482 + Vorinostat = compound: Cc1cc([C@@H](C)Nc2ccccc2C(=O)O)c2nc(N3CCOCC3)cc(=O)n2c1 [AZD6482] + O=C(CCCCCCC(=O)Nc1ccccc1)NO [Vorinostat] (partner 1 µM)
# In short: (§1)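 Lung cancer cell lines in 1536-well plates got either a single drug or a fixed anchor-drug dose together with five library-drug doses (not always all listed) in √10 steps, by pin tool, on the day after seeding. Nuclei were counted after 5 days, and relative viability is the treated-to-vehicle ratio of nuclei counts. Values are medians of duplicate plates.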
# [1] = compound: COc1cc2nc(N3CCCN(C)CC3)nc(NC3CCN(Cc4ccccc4)CC3)c2cc1OC + CC(=O)Nc1cccc(-n2c(=O)n(C3CC3)c(=O)c3c(Nc4ccc(I)cc4F)n(C)c(=O)c(C)c32)c1 [Trametinib] (partner 0.02 µM)
# In short: as §1
# [2] = compound: COc1cc2nc(N3CCCN(C)CC3)nc(NC3CCN(Cc4ccccc4)CC3)c2cc1OC + N=C(N)NC(=N)NCCc1ccccc1 [Phenformin] (partner 250 µM)
# In short: as §1
# AZD6482 + Bortezomib = compound: Cc1cc([C@@H](C)Nc2ccccc2C(=O)O)c2nc(N3CCOCC3)cc(=O)n2c1 [AZD6482] + CC(C)C[C@H](NC(=O)[C@H](Cc1ccccc1)NC(=O)c1cnccn1)B(O)O [Bortezomib] (partner 0.002 µM)
# In short: as §1
Cell Line,relative viability (AZD6482 + Vorinostat; first compound 0.08 µM),relative viability (AZD6482 + Vorinostat; first compound 0.253 µM),relative viability (AZD6482 + Vorinostat; first compound 0.8 µM),relative viability (AZD6482 + Vorinostat; first compound 2.53 µM),relative viability (AZD6482 + Vorinostat; first compound 8 µM),relative viability ([1]; first compound 0.2 µM),relative viability ([1]; first compound 0.6325 µM),relative viability ([1]; first compound 2 µM),relative viability ([1]; first compound 6.325 µM),relative viability ([2]; first compound 0.2 µM),relative viability ([2]; first compound 0.6325 µM),relative viability ([2]; first compound 2 µM),relative viability ([2]; first compound 6.325 µM),relative viability (AZD6482 + Bortezomib; first compound 0.08 µM),relative viability (AZD6482 + Bortezomib; first compound 0.253 µM),relative viability (AZD6482 + Bortezomib; first compound 0.8 µM),relative viability (AZD6482 + Bortezomib; first compound 2.53 µM),relative viability (AZD6482 + Bortezomib; first compound 8 µM)
HCC-827,0.801,0.795,0.912,0.649,0.686,0.533,0.558,0.518,0.542,0.405,0.431,0.294,0.402,0.991,1.1,1.09,0.872,0.836
HOP-62,0.613,0.583,0.615,0.408,0.473,0.396,0.434,0.459,0.361,0.684,0.629,0.721,0.641,0.795,1.12,0.752,0.939,1.18
IA-LM,0.858,0.906,1.03,–,0.854,–,–,–,–,–,–,–,–,1.11,0.876,0.953,0.416,0.496
LC-2-ad,0.703,0.702,0.854,0.605,0.625,0.934,0.871,0.942,0.941,0.528,0.568,0.644,0.521,1.07,0.962,1.1,0.754,0.926
LCLC-97TM1,0.616,0.703,0.565,–,0.583,0.181,0.166,0.225,0.195,0.432,0.401,0.503,0.465,0.499,0.38,0.435,–,0.351
LCLC-103H,0.661,0.748,0.784,0.565,0.51,0.682,0.745,0.743,0.671,0.36,0.344,0.367,0.36,0.969,1.08,0.921,0.742,0.729
LK-2,0.374,0.276,0.298,0.384,0.258,0.813,0.928,0.633,0.881,0.504,0.569,0.576,0.311,–,–,–,–,–
LOU-NH91,0.852,0.92,0.834,0.602,0.712,0.801,0.778,0.781,0.811,0.643,0.803,0.506,0.674,0.453,0.473,0.519,0.475,0.6
LU99A,0.473,0.403,0.49,0.414,0.409,0.531,0.47,0.541,0.526,0.846,0.827,0.691,0.857,1.07,1.16,1.11,0.875,0.823
LXF-289,0.814,0.741,0.87,0.729,0.752,0.651,0.701,0.634,0.625,0.511,0.507,0.527,0.525,0.972,1,1.05,0.845,0.947
NCI-H358,0.494,0.648,0.672,0.347,0.56,0.132,0.16,0.121,0.126,0.318,0.522,0.296,0.305,–,–,–,–,–
NCI-H522,0.818,0.896,0.805,0.829,0.759,0.754,0.728,0.749,0.817,0.649,0.68,0.613,0.745,–,–,–,–,–
NCI-H1299,–,–,–,–,–,–,–,–,–,–,–,–,–,0.916,1.03,1.11,0.957,1.1
NCI-H1395,0.584,0.402,0.559,0.385,0.47,1.01,1.03,1.13,0.806,0.461,0.451,0.433,0.397,–,–,–,–,–
NCI-H1563,–,–,–,–,–,–,–,–,–,0.638,0.75,0.68,0.666,0.75,0.828,0.818,0.673,0.68
NCI-H1623,–,–,–,–,–,–,–,–,–,0.62,0.621,0.522,0.569,–,–,–,–,–
NCI-H1648,0.545,0.422,0.552,–,0.402,–,0.511,–,0.532,–,–,–,–,–,–,–,–,–
NCI-H1703,–,–,–,–,–,–,–,–,–,–,–,–,–,0.377,0.301,0.331,0.191,0.238
NCI-H1792,–,–,–,–,–,0.435,0.47,0.466,0.399,–,0.257,0.467,0.268,0.856,0.859,0.991,0.677,0.483
NCI-H1793,0.582,0.481,0.676,0.38,0.404,0.374,0.39,0.412,0.373,0.372,0.385,0.404,0.364,–,–,–,–,–
NCI-H1944,0.544,0.498,0.609,0.43,0.469,0.437,0.423,0.379,0.414,0.21,0.221,0.201,0.203,–,–,–,–,–
NCI-H2170,0.742,0.695,0.767,0.677,0.578,0.989,0.856,0.959,0.948,0.402,0.407,0.425,0.387,–,–,–,–,–
NCI-H2342,0.733,0.683,0.71,0.518,0.48,0.916,0.963,0.818,0.803,0.597,0.512,0.649,0.606,–,–,–,–,–
SK-MES-1,0.842,1.05,1.02,0.594,0.684,0.597,0.56,0.599,0.471,0.656,0.626,0.696,0.541,–,–,–,–,–
SW 900,0.38,0.357,0.528,0.328,0.402,0.661,0.753,0.584,0.688,0.522,0.682,0.645,0.47,–,–,–,–,–
